Here are results for 1 compound from patent US8003343B2, “Method for determining diamine oxidase” (Sciotec Diagnostic Technologies GmbH, priority 2005, dated 2011).

The target of the assay is diamine oxidase (DAO; EC 1.4.3.6) (Homo sapiens, UniProt P19801). In words: biochemical. As for the experimental part:
The sample is contacted and mixed with the given amount of diamine preferably dissolved in an aqueous solution. It is, of course, also possible to directly add a given amount of diamine to a defined amount of sample (e.g. in crystal form). […] After having incubated this mixture for a fixed period during which the diamine contained in the aqueous solution is degraded in the presence of DAO as a function of the amount of the latter, the diamine remaining in the mixture is derivatized by 95%, preferably 99%, even more preferred 99.5%, in particular 100%. The incubation conditions must be selected such that the DAO possibly present in the sample is able to convert the present diamine. DAO is an enzyme which converts diamine substrates such as, e.g. histamine, at such reaction rates that the incubation time will preferably last for at least 30 minutes.
FIG. 3 depicts the relative enzymatic activity of a defined amount of DAO in a sample as a function of the amount of histamine used.

Chain of diamine oxidase (DAO; EC 1.4.3.6) (P19801 20-751, species assumed): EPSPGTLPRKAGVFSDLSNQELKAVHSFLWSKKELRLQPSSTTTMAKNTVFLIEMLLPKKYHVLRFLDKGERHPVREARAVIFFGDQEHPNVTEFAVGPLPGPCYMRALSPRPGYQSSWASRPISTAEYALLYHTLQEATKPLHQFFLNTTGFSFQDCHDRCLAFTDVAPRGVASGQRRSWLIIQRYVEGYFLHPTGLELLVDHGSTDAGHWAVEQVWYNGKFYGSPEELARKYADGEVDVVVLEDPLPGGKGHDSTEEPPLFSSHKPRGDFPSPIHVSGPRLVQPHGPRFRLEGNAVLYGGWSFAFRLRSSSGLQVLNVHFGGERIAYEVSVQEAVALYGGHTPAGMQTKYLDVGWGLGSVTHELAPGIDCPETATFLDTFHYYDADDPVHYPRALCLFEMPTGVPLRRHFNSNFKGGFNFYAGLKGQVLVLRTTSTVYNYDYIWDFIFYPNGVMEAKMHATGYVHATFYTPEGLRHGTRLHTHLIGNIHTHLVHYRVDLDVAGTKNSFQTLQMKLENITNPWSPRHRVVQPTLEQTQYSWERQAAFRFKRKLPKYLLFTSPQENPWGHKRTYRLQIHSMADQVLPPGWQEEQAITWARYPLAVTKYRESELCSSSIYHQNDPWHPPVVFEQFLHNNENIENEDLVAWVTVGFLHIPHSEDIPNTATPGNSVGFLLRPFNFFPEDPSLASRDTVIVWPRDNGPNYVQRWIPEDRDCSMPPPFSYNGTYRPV

The inhibition is the share of the control response that was lost under treatment. Take `NCCc1c[nH]cn1` [histamine, 1H-imidazole-4-ethylamine]: the “inhibition of DAO” value (addition of at least 100 μM histamine) is “at least partially inhibited”. Also, the inhibition at 500 µM (read-out: inhibition of DAO) was around 60%.
